Test system: antibody to phenytoin
Assay: Immunoreactivity: conjugate activity in the phosphorylase kinase reaction mixture in the presence of monoclonal antibody to phenytoin
Format: biochemical
Details: same reaction mixture, antibody added

Nc1ncnc2c1ncn2[C@@H]1O[C@H](COP(=O)(O)OP(=O)(O)OP(=O)(O)O)[C@@H](O)[C@H]1O [ATP, adenosine triphosphate]
inhibition of activity by antibody: No inhibition

From EP0292170A2, “Enzyme immunoassay” (Bayer Corporation, priority 1987, dated 1988)
